Values joined by “and” are separate entries in the source; they are usually repeats but may differ in a detail not shown here. Identical values can stand only once.
Assays:
[1] = target: T1, SARS-CoV-2 M^pro (Severe acute respiratory syndrome coronavirus 2, UniProt P0DTD1); type: biochemical; conditions: mean with 95% confidence interval; 100 nM M^pro, pH 7.3, 37 °C
T1 construct: Initially reported to target the viral main protease (M^pro); made in house
Procedure: In the enzyme inhibition assays, the initial velocities were calculated from the initial linear portions of their curves, assuming steady-state kinetics. IC50 and Ki values were calculated using GraphPad Prism software. Z-FR-AMC (CatK and CatV), Z-RR-AMC (CatB and CatL), and QS1 or Acetyl-VKLQ-AMC (M^pro) substrates were used to monitor reactions. These measurements were done in four independent duplicates or triplicates, respectively.

[2] = target: T2, human CatK (Homo sapiens, UniProt P43235); assay: Cathepsin inhibition test, CatK; type: biochemical; conditions: for Residual activity (Vi/V0): Fig. S3 panel a, single replicates
T2 construct: made in house
T2 sequence (P43235 115-329): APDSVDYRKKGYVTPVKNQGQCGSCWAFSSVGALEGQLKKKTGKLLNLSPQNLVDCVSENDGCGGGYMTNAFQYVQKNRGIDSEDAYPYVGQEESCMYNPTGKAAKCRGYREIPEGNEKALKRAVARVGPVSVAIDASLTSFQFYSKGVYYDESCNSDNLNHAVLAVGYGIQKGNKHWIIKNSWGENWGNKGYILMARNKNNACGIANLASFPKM

[3] = target: T3, human CatV (Homo sapiens, UniProt O60911); assay: Cathepsin inhibition test, CatV; type: biochemical; conditions: Fig. S3 panel c, single replicates
T3 construct: made in house
T3 sequence (O60911 114-334): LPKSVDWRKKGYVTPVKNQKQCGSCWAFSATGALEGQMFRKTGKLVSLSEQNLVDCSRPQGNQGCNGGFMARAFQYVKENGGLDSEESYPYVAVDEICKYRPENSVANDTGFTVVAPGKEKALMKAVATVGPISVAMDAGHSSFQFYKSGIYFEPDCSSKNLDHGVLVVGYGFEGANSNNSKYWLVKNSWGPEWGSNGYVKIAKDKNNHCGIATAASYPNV

[4] = test system: SARS-CoV-2-GFP; assay: microbe, parasite or virus in culture; type: cell-based; conditions: mean with standard error, read-out: VERO E6 EC50
[5] = test system: SARS-CoV-2; assay: Viral loading determination via RT-qPCR in LC-HK2 cells; type: cell-based; conditions: for Viral titer (% control): LC-HK2, RT-qPCR
[6] = test system: SARS-CoV-2; assay: Cytopathic effect inhibition assay in VERO-CCL81 cells; type: cell-based; conditions: for CPE inhibition (%): VERO CCL81, two experiments, listed as S-Calpepin
[7] = test system: SARS-CoV-2; assay: Cytopathic effect inhibition assay in LC-HK2 cells; type: cell-based; conditions: for CPE inhibition (%): LC-HK2
[8] = inhibitor 0.105 nM, 0.000105 µM
[9] = inhibitor 0.189 nM, 0.000189 µM
[10] = inhibitor 0.612 nM, 0.000612 µM
[11] = inhibitor 1.103 nM, 0.001103 µM
[12] = inhibitor 1.985 nM, 0.001985 µM
[13] = inhibitor 3.572 nM, 0.003572 µM
[14] = inhibitor 11.547 nM, 0.011547 µM

`CCCC[C@H](NC(=O)[C@H](CC(C)C)NC(=O)OCc1ccccc1)C(O)S(=O)(=O)[O-].[Na+]` (some centres unmarked) [S-Calpeptin] was tested. Which Ki [1] did it give?
Its Ki is 4700 nM.

What about the “Residual activity (Vi/V0)” value ([2]; inhibitor 0.010 nM, 10 pM) of the same compound?
The value was 1.028 and 1.067 and 0.9629 and 0.9414 and 0.9225.

What about the “Residual activity (Vi/V0)” value ([2]; inhibitor 0.018 nM, 18 pM) of the same compound?
The value was 1.062 and 1.238 and 0.9724 and 0.8624 and 0.8684.

And the “Residual activity (Vi/V0)” value ([2]; inhibitor 0.032 nM, 32 pM)?
Its value is 0.9319 and 1.215 and 0.8238 and 0.889 and 0.8605.

What about the “Residual activity (Vi/V0)” value ([2]; inhibitor 0.058 nM, 58 pM) of the same compound?
The value was 0.7562 and 0.8292 and 0.7671.

And the “Residual activity (Vi/V0)” value [2, 8]?
The value was 1.104 and 0.8757 and 0.7581 and 0.6636 and 0.6847.

What about the “Residual activity (Vi/V0)” value [2, 9] of the same compound?
Its value is 0.6363 and 0.7129 and 0.6855 and 0.6137 and 0.6926.

What about the “Residual activity (Vi/V0)” value ([2]; inhibitor 0.340 nM, 0.00034 µM) of the same compound?
Its value is 0.4419 and 0.3556 and 0.547 and 0.5599 and 0.6191.

What about the “Residual activity (Vi/V0)” value [2, 10] of the same compound?
The value was 0.562 and 0.5894 and 0.4634 and 0.3938 and 0.3707.

What about the “Residual activity (Vi/V0)” value [2, 11] of the same compound?
Its value is 0.4683 and 0.4274 and 0.3853 and 0.3355 and 0.2949.

And the “Residual activity (Vi/V0)” value [2, 12]?
Its value is 0.2888 and 0.2948 and 0.2332 and 0.2265 and 0.1772.

What about the “Residual activity (Vi/V0)” value [2, 13] of the same compound?
Its value is 0.2021 and 0.2433 and 0.1658 and 0.1472 and 0.1161.

What about the “Residual activity (Vi/V0)” value ([2]; inhibitor 6.430 nM, 0.00643 µM) of the same compound?
Its value is 0.1399 and 0.09741 and 0.09721 and 0.03496.

And the “Residual activity (Vi/V0)” value [2, 14]?
Its value is 0.01107 and 0.1108 and 0.1149 and 0.0689 and 0.02957.

And the “Residual activity (Vi/V0)” value ([2]; inhibitor 20.833 nM, 0.020833 µM)?
Its value is 0.08599 and -0.06715 and 0.04731 and 0.03845 and 0.01885.

And the “Residual activity (Vi/V0)” value ([2]; inhibitor 37.500 nM, 0.0375 µM)?
The value was -0.05695 and -0.1347 and 0.027 and 0.005377 and -0.00068.

What about the Ki ([2]; mean with standard deviation and 95% confidence interval, pH 5.5, 37 °C) of the same compound?
Its Ki is 0.05 nM.

What about the “Residual activity (Vi/V0)” value ([3]; inhibitor 0.010 nM, 10 pM) of the same compound?
Its value is 0.8982 and 0.9438 and 1.016 and 0.9432 and 0.9838 and 0.9734 and 1.009 and 0.9925.

And the “Residual activity (Vi/V0)” value ([3]; inhibitor 0.018 nM, 18 pM)?
The value was 0.7063 and 0.8048 and 0.9697 and 0.9452 and 0.965 and 0.9273 and 1.044 and 0.9905.

What about the “Residual activity (Vi/V0)” value ([3]; inhibitor 0.032 nM, 32 pM) of the same compound?
The value was 0.4743 and 0.664 and 0.9379 and 0.8845 and 0.8627 and 0.9319 and 1.237 and 0.91.

What about the “Residual activity (Vi/V0)” value ([3]; inhibitor 0.058 nM, 58 pM) of the same compound?
Its value is 0.01132 and 0.01674 and 0.9458 and 0.6877 and 0.9713 and 0.8348 and 1.1467 and 0.7642.

What about the “Residual activity (Vi/V0)” value [3, 8] of the same compound?
Its value is 0.5008 and 0.5002 and 0.8948 and 0.8318 and 0.8983 and 0.7019 and 1.143 and 0.6207.

What about the “Residual activity (Vi/V0)” value [3, 9] of the same compound?
Its value is 0.2447 and 0.2374 and 0.7712 and 0.7606 and 0.8108 and 0.5224 and 1.02 and 0.4249.

What about the “Residual activity (Vi/V0)” value ([3]; inhibitor 0.340 nM, 0.00034 µM) of the same compound?
The value was 0.1518 and 0.1386 and 0.6304 and 0.6112 and 0.6332 and 0.3803 and 0.6867 and 0.2117.

What about the “Residual activity (Vi/V0)” value [3, 10] of the same compound?
Its value is 0.103 and 0.1097 and 0.4478 and 0.4871 and 0.5442 and 0.179 and 0.3919 and 0.1269.

And the “Residual activity (Vi/V0)” value [3, 11]?
The value was 0.05798 and 0.06049 and 0.2946 and 0.2993 and 0.3554 and 0.1895 and 0.2004 and 0.05784.

What about the “Residual activity (Vi/V0)” value [3, 12] of the same compound?
The value was 0.03342 and 0.03103 and 0.1055 and 0.1184 and 0.07678 and 0.1061 and 0.06687 and 0.038.

What about the “Residual activity (Vi/V0)” value [3, 13] of the same compound?
The value was 0.01297 and 0.01099 and 0.0386 and 0.03676 and 0.03768 and 0.02078 and 0.03085 and 0.02157.

And the “Residual activity (Vi/V0)” value ([3]; inhibitor 6.430 nM, 0.00643 µM)?
The value was 0.008943 and 0.006591 and 0.009607 and 0.008666 and 0.01717 and 0.01084 and 0.01202 and 0.007959.

And the “Residual activity (Vi/V0)” value [3, 14]?
The value was 0.003173 and 0.004275 and 0.001602 and 0.001011.

And the EC50 [4]?
Its EC50 is 120 ± 54 nM.

And the EC50 ([5]; LC-HK2, RT-qPCR, 72 h post-infection, read-out: Viral titer EC50)?
Its EC50 is 630 nM.

What about the “Viral titer (% control)” value ([5]; 0.0006 μM) of the same compound?
The value was 100 % control.

What about the “Viral titer (% control)” value ([5]; 0.0012 μM) of the same compound?
Its value is 100 % control.

And the “Viral titer (% control)” value ([5]; 0.0024 μM)?
The value was 100 % control.

What about the “Viral titer (% control)” value ([5]; 0.0049 μM) of the same compound?
Its value is 100 % control.

What about the “Viral titer (% control)” value ([5]; 0.0098 μM) of the same compound?
The value was 100 % control.

And the “Viral titer (% control)” value ([5]; 0.0195 μM)?
The value was 100 % control.

And the “Viral titer (% control)” value ([5]; 0.0391 μM)?
Its value is 100 % control.

And the “Viral titer (% control)” value ([5]; 0.0781 μM)?
The value was 100 % control.

And the “Viral titer (% control)” value ([5]; 0.1563 μM)?
Its value is 100 % control.

What about the “Viral titer (% control)” value ([5]; 0.3125 μM, listed as S-Calpepin) of the same compound?
The value was 56.49 % control and 49.6 % control.

And the “Viral titer (% control)” value ([5]; 0.625 μM, listed as S-Calpepin)?
Its value is 69.04 % control and 44.94 % control.

What about the “Viral titer (% control)” value ([5]; 1.25 μM, listed as S-Calpepin) of the same compound?
Its value is 38.67 % control and 33.45 % control.

What about the “Viral titer (% control)” value ([5]; 2.5 μM, listed as S-Calpepin) of the same compound?
Its value is 33.13 % control and 30.16 % control.

And the “Viral titer (% control)” value ([5]; 100 μM)?
Its value is 0 % control.

And the “CPE inhibition (%)” value ([6]; 0.0781 μM)?
The value was 0% and 0.33%.

And the “CPE inhibition (%)” value ([6]; 0.625 μM)?
Its value is 38.01% and 20.29%.

What about the “CPE inhibition (%)” value ([6]; 1.25 μM) of the same compound?
Its value is 52.68% and 61.52%.

And the “CPE inhibition (%)” value ([6]; 2.5 μM)?
Its value is 60.88% and 68.39%.

What about the “CPE inhibition (%)” value ([6]; 5 μM) of the same compound?
The value was 63.97% and 88.53%.

What about the “CPE inhibition (%)” value ([6]; 10 μM) of the same compound?
The value was 67.47% and 80.91%.

What about the EC50 ([6]; VERO-CCL81, CellTiter-Glo, 48 h post-infection, read-out: CPE inhibition EC50) of the same compound?
The EC50 was 700 nM.

And the EC50 ([7]; LC-HK2, CellTiter-Glo, 72 h post-infection, read-out: CPE inhibition EC50)?
Its EC50 is 70 nM.

And the “CPE inhibition (%)” value ([7]; 0.000000000001 μM (first of two lines so printed, r18))?
Its value is 0%.

What about the “CPE inhibition (%)” value ([7]; 0.000000000001 μM (second line, r19)) of the same compound?
Its value is 0%.
